Experiments:
Assay type in all cases: in vivo
Galium aparine (GALAP) = assay: greenhouse post-emergence herbicidal efficacy against GALAP
Procedure: (§1) All trials whose results are shown were conducted in a greenhouse by the methodology specified below. The effect of the inventive herbicidal compositions was examined on the following harmful plants 14 and 21 days after application:
(§2) Echinochloa crus-galli (ECHCG), Eleusine indica (ELEIN), Setaria viridis (SETVI), Amaranthus retroflexus (AMARE), Chenopodium album (CHEAL), Kochia scoparia (KCHSC), Solanum nigrum (SOLNI), Avena fatua (AVEFA), Bromus sterilis (BROST), Lolium multiflorum (LOLMU), Phalaris minor (PHAMI), Poa annua (POAAN), Galium aparine (GALAP), Matricaria inodora (MATIN) and Polygonum convolvulus (POLCO).
(§3) The harmful plant seeds were sown in pots (diameter 8 cm) with sandy loam soil and germinated under optimal conditions. The inventive herbicidal compositions or the active ingredients alone were applied post-emergence to the planted pots with a spray volume of 300 L/ha. The trial was conducted in a greenhouse under optimum growth conditions. The herbicidal effects were assessed visually by comparison of untreated and treated plants. The percentages mean: 0%=no effects, 100%=the plants die off completely).
(§4) The abbreviations mean: • a.i.=active ingredient • E^C=expected value according to Colby (E^C=A+B−A×B/100) • Diff: =difference (%) of measured value from expected value (%) (measured value minus expected value)
(§5) Assessment: • measured value E is greater than E^C:->synergism (+ diff.) • measured value E equals E^C:->additive effect • measured value E is smaller than E^C:->antagonism(− diff.)

Avena fatua (AVEFA) = assay: greenhouse post-emergence herbicidal efficacy against AVEFA
Procedure: as §1, §2, §3, §4, §5

[1] = tested on: Polygonum convolvulus (POLCO); assay: greenhouse post-emergence herbicidal efficacy against POLCO
Procedure: as §1, §2, §3, §4, §5

Poa annua (POAAN) = assay: greenhouse post-emergence herbicidal efficacy against POAAN
Procedure: as §1, §2, §3, §4, §5

[2] = tested on: Matricaria inodora (MATIN); assay: greenhouse post-emergence herbicidal efficacy against MATIN
Procedure: as §1, §2, §3, §4, §5

Phalaris minor (PHAMI) = assay: greenhouse post-emergence herbicidal efficacy against PHAMI
Procedure: as §1, §2, §3, §4, §5

[3] = tested on: Lolium multiflorum (LOLMU); assay: greenhouse post-emergence herbicidal efficacy against LOLMU
Procedure: as §1, §2, §3, §4, §5

Bromus sterilis (BROST) = assay: greenhouse post-emergence herbicidal efficacy against BROST
Procedure: as §1, §2, §3, §4, §5

[4] = 14 days after application, 20 g of a.i./ha
[5] = 21 days after application, g of a.i./ha: A1-3 5, pinoxaden 20
[6] = 21 days after application, g of a.i./ha: A1-3 20, pinoxaden 5
[7] = 21 days after application, g of a.i./ha: A1-3 20, pinoxaden 20
[8] = 14 days after application, 5 g of a.i./ha
[9] = 14 days after application, 25 g of a.i./ha
[10] = 21 days after application, g of a.i./ha: A1-55 10, glufosinate-ammonium 25
[11] = 14 days after application, 100 g of a.i./ha
[12] = 21 days after application, g of a.i./ha: A1-55 2.5, glufosinate-ammonium 100
[13] = 21 days after application, g of a.i./ha: A1-55 10, glufosinate-ammonium 100
[14] = 21 days after application, g of a.i./ha: A1-55 2.5, glufosinate-ammonium 25

CCc1cc(C)cc(CC)c1-c1c(OC(=O)C(C)(C)C)n2n(c1=O)CCOCC2 [pinoxaden]
Efficacy (Galium aparine (GALAP); [4]): 0%
Efficacy (Galium aparine (GALAP); [5]): 0%
Efficacy (Galium aparine (GALAP); [6]): 0%
Efficacy (Galium aparine (GALAP); [7]): 0%
Efficacy (Avena fatua (AVEFA); [8]): 0%
Efficacy (Avena fatua (AVEFA); [4]): 20%
Efficacy [1, 8]: 0%
Efficacy [1, 4]: 0%
Efficacy [1, 6]: 0%
Efficacy [1, 7]: 0%
Efficacy (Poa annua (POAAN); [8]): 0%
Efficacy (Poa annua (POAAN); [4]): 0%
Efficacy (Poa annua (POAAN); [5]): 0%
Efficacy (Poa annua (POAAN); [7]): 0%
Efficacy [2, 4]: 0%
Efficacy (Phalaris minor (PHAMI); [8]): 10%
Efficacy (Phalaris minor (PHAMI); [4]): 50%
Efficacy (Phalaris minor (PHAMI); [6]): 10%
Efficacy (Phalaris minor (PHAMI); [7]): 20%
Efficacy [3, 4]: 85%
Efficacy [3, 5]: 80%
Efficacy [3, 6]: 30%
Efficacy (Bromus sterilis (BROST); [8]): 0%
Efficacy (Bromus sterilis (BROST); [4]): 10%

CP(=O)(O)CCC(N)C(=O)O (centres unmarked) [glufosinate-ammonium]
Efficacy (Galium aparine (GALAP); [9]): 0%
Efficacy (Galium aparine (GALAP); [10]): 0%
Efficacy (Avena fatua (AVEFA); [9]): 0%
Efficacy (Avena fatua (AVEFA); [11]): 25%
Efficacy (Avena fatua (AVEFA); [12]): 20%
Efficacy (Avena fatua (AVEFA); [13]): 20%
Efficacy [1, 9]: 0%
Efficacy [1, 11]: 25%
Efficacy [1, 10]: 0%
Efficacy [1, 13]: 5%
Efficacy (Poa annua (POAAN); [11]): 0%
Efficacy (Poa annua (POAAN); [12]): 5%
Efficacy (Poa annua (POAAN); [13]): 5%
Efficacy [2, 9]: 0%
Efficacy [2, 11]: 30%
Efficacy [2, 14]: 0%
Efficacy [2, 12]: 15%
Efficacy [2, 10]: 0%
Efficacy [2, 13]: 15%
Efficacy (Phalaris minor (PHAMI); [9]): 0%
Efficacy (Phalaris minor (PHAMI); [11]): 15%
Efficacy (Phalaris minor (PHAMI); [14]): 0%
Efficacy (Phalaris minor (PHAMI); [12]): 10%
Efficacy (Phalaris minor (PHAMI); [10]): 0%
Efficacy (Phalaris minor (PHAMI); [13]): 10%
Efficacy [3, 9]: 0%
Efficacy [3, 11]: 25%
Efficacy [3, 12]: 15%
Efficacy [3, 13]: 15%
Efficacy (Bromus sterilis (BROST); [11]): 15%
Efficacy (Bromus sterilis (BROST); [12]): 15%
Efficacy (Bromus sterilis (BROST); [10]): 0%
